Results as given in ChEMBL document CHEMBL1201862, “PubChem BioAssay data set” (2004).
The source made the active and inactive calls.

Experiments:
[1] = tested on: Candida albicans; assay: reversal of fluconazole resistance in C. albicans, dose response, CaCi-2 strain, Alamar Blue, dry powder, set 3 (AID 488907); type: functional, organism-based
[2] = tested on: Candida albicans; assay: growth inhibition of azole-resistant C. albicans, dose response, CaCi-8 strain, Alamar Blue, dry powder, set 3 (AID 488905); type: functional, organism-based
[3] = molecular target: T1, Endoribonuclease toxin MazF (Escherichia coli K-12, UniProt P0AE70); assay: fluorescent RNA oligo signal without MazF, dose response, counter-screen for MazEF activator project, biochemical, fluorescence, single-stranded RNase substrate (AID 588502); type: functional
T1 sequence (P0AE70 whole entry): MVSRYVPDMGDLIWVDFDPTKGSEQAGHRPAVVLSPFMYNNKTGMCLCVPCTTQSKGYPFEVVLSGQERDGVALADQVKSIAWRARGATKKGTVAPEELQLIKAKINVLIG

[4] = molecular target: T1, Endoribonuclease toxin MazF; assay: SAR analysis of small molecule activators of the MazEF TA System via a fluorescence-based single-stranded RNase assay counterscreen. [Related pubchem assays (depositor defined):AID504720, AID504743]; type: functional
[5] = molecular target: T1, Endoribonuclease toxin MazF; assay: MazF endoribonuclease activators, SAR follow-up, biochemical, fluorescence, single-stranded RNA substrate (AID 588603); type: functional
[6] = molecular target: T1, Endoribonuclease toxin MazF; assay: MazF toxin RNase activators, dose response, biochemical, fluorescence, single-stranded RNA substrate, uHTS hits (AID 588481); type: functional
[7] = tested on: MEF; assay: SAR analysis of small molecule cytotoxicity of MazEF TA System activators in embryonic fibroblast (MEF) cells. [Related pubchem assays (depositor defined):AID504720, AID504743]; type: functional; settings: Mus musculus
[8] = molecular target: Phospholipase A2 (Homo sapiens, UniProt P04054); type: functional;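 further: confirmatory dose-response counterscreen on phospholipase A2, testing hits that came from an ultra-high-throughput screen for ATG4B inhibitors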
[9] = molecular target: Cysteine protease ATG4B (Homo sapiens, UniProt Q9Y4P1); type: functional;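 further: Fluorescence-based dose-response confirmation assay measuring inhibition of ATG4B activity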
[10] = tested on: BJ; assay: cytotoxicity toward BJ-TERT fibroblasts, dose response, cell-based, RAS-independent, luminescence (AID 1933); type: functional; settings: Homo sapiens
[11] = inhibitors of intracellular T. cruzi replication, confirmation, NIH3T3 host cells, beta-gal luminescence (AID 2044); type: functional, cell-based;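 further: intracellular parasites grown in NIH/3T3 mouse fibroblasts as host cells; luminescent beta-galactosidase reporter signal from transgenic T. cruzi replicating inside host cells; inhibitors lower the luminescence signal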
[12] = molecular target: Heat shock protein HSP 90-alpha (Homo sapiens, UniProt P07900); type: functional, organism-based
[13] = cytotoxicity toward DRD oncogenic fibroblasts, dose response, cell-based, non-viral oncogenic, luminescence (AID 1934); type: functional; settings: Homo sapiens
[14] = cells; type: functional, cell-based
[15] = molecular target: Exodeoxyribonuclease V (Escherichia coli (strain K12), UniProt P04993+P07648+P08394); assay: E. coli RecBCD inhibitors, dose response, counter-screen for AddAB inhibitor project, absorbance, V66 E. coli, mutant T4 phage (AID 492957); type: functional, cell-based, Escherichia coli str. K-12 substr. MG1655
[16] = HepG2 cell cytotoxicity, dose response, cytotoxicity control for Shn3 inhibitor project, CellTiter-Glo, cherry-picked (AID 624134); type: functional, cell-based
[17] = control 3'UTR Renilla luciferase suppression, dose response, counter-screen for Shn3 inhibitor project, cell-based, Clone20-Shn3RL, cherry-picked (AID 624133); type: functional
[18] = tested on: INS1; assay: beta cell apoptosis inhibitors, cytokine rescue, dose response, luminescence, retest (AID 449756); type: functional, cell-based; settings: Rattus norvegicus;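 further: cell death triggered by IL-1 beta plus TNF-alpha plus IFN-gamma mixture; protective hits raise ATP signal compared with cytokine alone wells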
[19] = tested on: BJ; assay: cytotoxicity toward BJ-TERT-LT-ST fibroblasts, dose response, cell-based, RAS-independent, luminescence (AID 1935); type: functional; settings: Homo sapiens;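 further: BJ fibroblasts immortalized with TERT plus LT and ST oncogenes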
[20] = cytotoxicity toward NIH3T3 fibroblasts, dose response, counter-screen, cell-based, ATP luminescence, mouse fibroblasts (AID 2010); type: functional;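 further: cells exposed to compound for about 90 hours before reading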
[21] = cytotoxicity in HEK-293T cells, dose response, cytotoxicity control for TCR NF-kB inhibitor project, luminescence, T-cell screen hits (AID 489026); type: functional, cell-based;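 further: cells exposed to compound about 14 hours before the viability readout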
[22] = tested on: BJ; assay: cells; type: functional, cell-based; settings: Homo sapiens
[23] = tested on: Jurkat; assay: SAR Analysis of small molecule inhibitors of T-cell specific antigen receptor-induced NF-kB activation in a Jurkat cell line using a luminescence assay - Set 2. [Related pubchem assays (depositor defined):AID435003, AID435012, AID465]; type: functional, cell-based; settings: Homo sapiens
[24] = tested on: HEK293; assay: SAR Analysis of small molecule inhibitors of T-cell specific antigen receptor-induced NF-kB activation in a HEK-293T cell line using a luminescence assay - Set 2. [Related pubchem assays (depositor defined):AID435003, AID435012, AID489026]; type: functional, cell-based; settings: Homo sapiens
[25] = tested on: HEK293; assay: inhibitors of LMP1-driven NF-kB reporter, dose response, cell-based, HEK293, luciferase, cherry-pick (AID 588343); type: functional; settings: Homo sapiens
[26] = Shn3 3'UTR reporter inhibitors, dose response, cell-based, Clone20 osteoblasts, firefly luciferase, cherry-picked (AID 624132); type: functional;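 further: firefly luciferase luminescence from reporter carrying the Shn3 3'UTR in osteoblasts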
[27] = cells; type: functional, cell-based; remark: listed apart in the source
[28] = molecular target: Paired box protein Pax-8 (Homo sapiens, UniProt Q06710); assay: inhibitors of PAX8-driven TPO luciferase reporter, dose response, RMG-I cells, cherry-pick (AID 687027); type: functional, cell-based;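 further: luciferase reporter driven by Pax8 target thyroperoxidase promoter measured by SteadyGlo luminescence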
[29] = Luminescence-based dose response cell-based high throughput screening assay for cytotoxic compounds using the IEC-6 intestinal epithelial cell line. [Related pubchem assays: 1858 (Summary AID.), 1825 (Counterscreen.), 1907 (Confirmation screen.)]; type: functional
[30] = Counterscreen for AddAB inhibitors: absorbance-based bacterial cell-based high throughput dose response assay for inhibitors of bacterial viability. [Related pubchem assays (depositor defined):AID435030, AID449728, AID449731, AID488942, AID488955, AID488956]; type: functional
[31] = tested on: HEK293; assay: cytotoxicity in HEK293T NF-kB-Luc cells, SAR follow-up, cytotoxicity control for NF-kB activator project, cell-based, resazurin fluorescence (AID 493251); type: functional; settings: Homo sapiens

Sequence of Exodeoxyribonuclease V (P04993 whole entry): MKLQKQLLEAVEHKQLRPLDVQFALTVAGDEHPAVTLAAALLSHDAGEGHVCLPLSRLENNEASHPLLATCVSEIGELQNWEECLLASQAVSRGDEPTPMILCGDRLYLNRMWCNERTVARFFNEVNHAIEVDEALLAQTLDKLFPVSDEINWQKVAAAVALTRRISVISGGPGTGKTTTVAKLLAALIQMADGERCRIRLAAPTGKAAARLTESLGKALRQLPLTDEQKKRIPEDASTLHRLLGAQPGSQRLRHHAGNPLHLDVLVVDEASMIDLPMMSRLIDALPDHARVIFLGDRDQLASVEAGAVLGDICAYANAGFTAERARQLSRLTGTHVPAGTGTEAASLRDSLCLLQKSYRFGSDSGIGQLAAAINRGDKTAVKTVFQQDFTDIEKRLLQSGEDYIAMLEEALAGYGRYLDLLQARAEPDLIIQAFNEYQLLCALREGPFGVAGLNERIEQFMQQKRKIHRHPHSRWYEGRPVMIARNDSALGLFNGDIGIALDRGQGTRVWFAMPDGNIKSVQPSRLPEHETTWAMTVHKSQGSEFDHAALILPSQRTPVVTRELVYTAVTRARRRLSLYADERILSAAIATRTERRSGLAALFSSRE
Sequence of Exodeoxyribonuclease V (P07648 whole entry): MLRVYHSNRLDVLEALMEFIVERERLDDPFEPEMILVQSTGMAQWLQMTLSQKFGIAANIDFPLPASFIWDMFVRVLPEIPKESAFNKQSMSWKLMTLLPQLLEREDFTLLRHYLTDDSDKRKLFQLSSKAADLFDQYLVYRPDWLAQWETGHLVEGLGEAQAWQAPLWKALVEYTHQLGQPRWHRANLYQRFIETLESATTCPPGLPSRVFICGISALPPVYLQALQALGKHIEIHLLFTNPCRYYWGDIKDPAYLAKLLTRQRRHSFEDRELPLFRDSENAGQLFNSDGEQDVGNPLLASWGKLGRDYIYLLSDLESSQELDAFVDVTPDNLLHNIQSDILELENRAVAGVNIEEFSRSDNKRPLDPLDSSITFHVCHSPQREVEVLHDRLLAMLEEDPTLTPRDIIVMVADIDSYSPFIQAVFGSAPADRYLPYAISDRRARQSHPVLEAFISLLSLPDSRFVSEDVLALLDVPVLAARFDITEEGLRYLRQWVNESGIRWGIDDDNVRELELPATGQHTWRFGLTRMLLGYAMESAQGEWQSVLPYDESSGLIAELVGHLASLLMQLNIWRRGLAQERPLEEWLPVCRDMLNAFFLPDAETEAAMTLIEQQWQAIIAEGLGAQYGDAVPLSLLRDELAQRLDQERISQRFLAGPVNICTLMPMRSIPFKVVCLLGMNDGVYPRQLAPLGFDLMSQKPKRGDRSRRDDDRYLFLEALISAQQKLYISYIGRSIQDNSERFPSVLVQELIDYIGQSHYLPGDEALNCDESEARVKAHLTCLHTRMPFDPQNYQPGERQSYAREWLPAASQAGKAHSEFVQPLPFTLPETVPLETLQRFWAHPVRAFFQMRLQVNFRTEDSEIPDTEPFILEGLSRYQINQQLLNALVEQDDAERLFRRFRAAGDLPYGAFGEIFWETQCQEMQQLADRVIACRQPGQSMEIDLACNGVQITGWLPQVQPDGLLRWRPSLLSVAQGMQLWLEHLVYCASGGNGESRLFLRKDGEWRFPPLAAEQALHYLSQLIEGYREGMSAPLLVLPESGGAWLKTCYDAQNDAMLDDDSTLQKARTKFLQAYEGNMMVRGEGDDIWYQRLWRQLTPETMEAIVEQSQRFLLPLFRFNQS
Sequence of Exodeoxyribonuclease V (P08394 whole entry): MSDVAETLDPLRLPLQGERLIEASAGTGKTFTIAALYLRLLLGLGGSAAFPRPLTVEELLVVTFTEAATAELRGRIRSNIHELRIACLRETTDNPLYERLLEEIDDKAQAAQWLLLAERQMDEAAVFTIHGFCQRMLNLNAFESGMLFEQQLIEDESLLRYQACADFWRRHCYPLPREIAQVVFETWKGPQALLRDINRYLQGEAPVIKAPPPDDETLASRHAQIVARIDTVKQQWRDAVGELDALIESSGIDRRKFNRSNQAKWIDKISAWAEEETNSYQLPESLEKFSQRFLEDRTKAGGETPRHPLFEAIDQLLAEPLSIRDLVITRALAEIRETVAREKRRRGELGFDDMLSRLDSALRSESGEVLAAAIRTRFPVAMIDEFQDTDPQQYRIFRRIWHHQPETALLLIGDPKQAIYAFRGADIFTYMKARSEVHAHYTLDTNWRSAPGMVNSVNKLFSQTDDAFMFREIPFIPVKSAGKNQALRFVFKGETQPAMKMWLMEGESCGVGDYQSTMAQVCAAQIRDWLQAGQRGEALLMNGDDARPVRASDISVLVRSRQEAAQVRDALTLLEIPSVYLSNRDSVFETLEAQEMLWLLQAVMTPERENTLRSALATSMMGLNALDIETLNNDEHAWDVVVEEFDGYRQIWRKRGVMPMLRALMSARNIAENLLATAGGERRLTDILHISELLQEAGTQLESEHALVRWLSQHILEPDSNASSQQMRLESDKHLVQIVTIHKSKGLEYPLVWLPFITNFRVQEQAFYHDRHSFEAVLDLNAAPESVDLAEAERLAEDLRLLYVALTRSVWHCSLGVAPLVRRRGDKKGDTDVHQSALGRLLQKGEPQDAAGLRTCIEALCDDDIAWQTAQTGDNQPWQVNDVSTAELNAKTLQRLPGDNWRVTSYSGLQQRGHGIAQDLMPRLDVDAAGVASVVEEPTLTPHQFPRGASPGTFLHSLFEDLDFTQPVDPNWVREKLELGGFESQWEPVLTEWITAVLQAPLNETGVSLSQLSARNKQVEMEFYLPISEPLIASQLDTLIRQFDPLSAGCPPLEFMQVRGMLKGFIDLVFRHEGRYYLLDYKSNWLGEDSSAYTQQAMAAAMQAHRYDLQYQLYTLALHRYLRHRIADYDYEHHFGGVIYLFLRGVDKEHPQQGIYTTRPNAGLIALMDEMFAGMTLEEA
Sequence of Cysteine protease ATG4B (Q9Y4P1 whole entry): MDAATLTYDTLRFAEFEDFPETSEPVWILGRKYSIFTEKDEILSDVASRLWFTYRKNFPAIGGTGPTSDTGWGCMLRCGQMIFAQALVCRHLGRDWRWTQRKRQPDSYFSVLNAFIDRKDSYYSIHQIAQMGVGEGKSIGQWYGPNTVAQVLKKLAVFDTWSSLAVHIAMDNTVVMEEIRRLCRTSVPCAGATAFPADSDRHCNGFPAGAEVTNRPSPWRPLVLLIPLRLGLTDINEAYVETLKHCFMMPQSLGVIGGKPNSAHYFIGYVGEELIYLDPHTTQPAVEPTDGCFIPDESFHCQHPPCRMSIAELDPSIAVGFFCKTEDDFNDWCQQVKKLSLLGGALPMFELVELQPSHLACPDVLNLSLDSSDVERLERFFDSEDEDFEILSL
Sequence of Phospholipase A2 (P04054 whole entry): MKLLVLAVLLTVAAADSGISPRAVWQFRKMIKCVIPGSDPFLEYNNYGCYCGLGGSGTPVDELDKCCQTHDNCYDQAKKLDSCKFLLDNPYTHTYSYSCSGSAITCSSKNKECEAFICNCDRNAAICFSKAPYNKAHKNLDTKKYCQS
Sequence of Paired box protein Pax-8 (Q06710 whole entry): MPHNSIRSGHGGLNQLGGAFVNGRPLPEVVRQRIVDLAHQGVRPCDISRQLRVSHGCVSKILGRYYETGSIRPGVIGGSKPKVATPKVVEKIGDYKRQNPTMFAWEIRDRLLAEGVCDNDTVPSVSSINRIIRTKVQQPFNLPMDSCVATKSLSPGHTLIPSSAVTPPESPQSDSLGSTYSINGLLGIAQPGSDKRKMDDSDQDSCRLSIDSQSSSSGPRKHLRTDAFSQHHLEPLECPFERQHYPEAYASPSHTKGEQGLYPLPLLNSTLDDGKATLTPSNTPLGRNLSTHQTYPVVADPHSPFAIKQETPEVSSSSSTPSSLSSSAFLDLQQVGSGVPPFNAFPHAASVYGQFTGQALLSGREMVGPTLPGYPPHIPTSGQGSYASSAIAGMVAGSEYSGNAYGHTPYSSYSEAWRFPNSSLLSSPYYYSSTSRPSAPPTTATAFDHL

O=C(c1ccc(Cl)cc1)N1CCN(c2nc3ccccc3s2)CC1
active: AC50 [1] 1.41 µM | AC50 [2] 0.565 µM

CN1C(=O)C(C)(C)c2cc(S(=O)(=O)NCc3ccc(C(=O)NCc4ccco4)cc3)ccc21
active: EC50 [5] 3.35 µM | EC50 [6] 7.01 µM
inactive: EC50 [3] 29.2 µM | EC50 [4] > 99 µM | CC50 [7] > 99 µM

Cc1ccc(-n2c(SCC(=O)N/N=C/C=C/c3ccccc3[N+](=O)[O-])nc3ccccc3c2=O)cc1
active: IC50 [8] 2.53 µM | IC50 [9] 6.42 µM

CC(=O)NC(c1ccc(C(C)C)cc1)c1ccc2cccnc2c1O (stereo unspecified)
active: EC50 [10] 0.958 µM | EC50 [11] 0.337 µM | AC50 [12] 3.58 µM | EC50 [14] 3.64 µM | AC50 [16] 1.3 µM | AC50 [17] 0.35 µM | AC50 [18] 0.494 µM | EC50 [20] 0.424 µM | IC50 [23] 2.6 µM | IC50 [24] 5.24 µM | AC50 [25] 5.2 µM | AC50 [26] 0.528 µM | AC50 [28] 2.03 µM | IC50 [29] 1.36 µM
inconclusive: EC50 [13] 8.18 µM | EC50 [19] 8.47 µM | EC50 [22] 2.29 µM
> 350 µM (not active): EC50 [27]
inactive: IC50 [15] > 118 µM | IC50 [21] > 80 µM | IC50 [30] > 118 µM | IC50 [31] 56.1 µM
